Data from ChEMBL document CHEMBL5506008, “Synthesis and biological evaluation of 1-phenyl-tetrahydro-β-carboline-based first dual PRMT5/EGFR inhibitors as potential anticancer agents” (Eur J Med Chem, 2024).
Active and inactive are the calls of the source. No cut-off for these calls is given here.

Key:
[1] = biological target: T1, Protein arginine N-methyltransferase 5 (Homo sapiens, UniProt O14744); assay: Inhibition of PRMT5 (unknown origin) by radiometric-based scintillation proximity assay
[2] = biological target: Protein arginine N-methyltransferase 1 (Homo sapiens, UniProt Q99873); assay: Inhibition of PRMT1 (unknown origin) using [3H]SAM as substrate preincubated for 15 mins followed by substrate addition and measured after 60 mins by microbeta scintillation counting analysis
[3] = biological target: Receptor tyrosine-protein kinase erbB-4 (Homo sapiens, UniProt Q15303); assay: Inhibition of wild type GST-tagged HER4 catalytic domain (unknown origin) expressed in insect cells using poly(Glu-Tyr) as substrate incubated for 6 mins by ELISA; set-up: species or system Insect cell
[4] = system: A549; assay: Antiproliferative activity against human A549 cells assessed as inhibition of cell growth by CCK-8 assay
[5] = system: MCF7; assay: Antiproliferative activity against human MCF7 cells assessed as inhibition of cell growth by CCK-8 assay
[6] = system: HeLa; assay: Antiproliferative activity against human HeLa cells assessed as inhibition of cell growth by CCK-8 assay
[7] = system: MDA-MB-231; assay: Antiproliferative activity against human MDA-MB-231 cells assessed as inhibition of cell growth by CCK-8 assay
[8] = system: HepG2; assay: Antiproliferative activity against human HepG2 cells assessed as inhibition of cell growth by CCK-8 assay
[9] = biological target: T1, Protein arginine N-methyltransferase 5; assay: Inhibition of PRMT5 in human MCF7 cells using SmD3 as substrate assessed as reduction in symmetric arginine dimethylation by measuring reduction in SmD3me2 level incubated for 72 hrs by Western blot analysis; type: cell-based; settings: dose 3.75-15 µM
[10] = Volume of distribution in male Sprague-Dawley rat at 10 mg/kg, po administered as single dose by LC-MS/MS analysis; type: ADME, organism-based; settings: in vivo
[11] = system: MCF7; assay: Induction of cell cycle arrest in human MCF7 cells assessed as accumulation of cells at G1 phase at 3.75 uM incubated for 48 hrs by PI/RNase staining based flow cytometry analysis (reference value: 48.01%); type: functional
[12] = system: MCF7; assay: Induction of cell cycle arrest in human MCF7 cells assessed as accumulation of cells at S phase at 3.75 uM incubated for 48 hrs by PI/RNase staining based flow cytometry analysis (reference value: 44.87%); type: functional
[13] = system: MCF7; assay: Induction of cell cycle arrest in human MCF7 cells assessed as accumulation of cells at G2 phase at 3.75 uM incubated for 48 hrs by PI/Rnase staining based flow cytometry analysis (reference value: […]%); type: functional
[14] = system: MCF7; assay: Induction of cell cycle arrest in human MCF7 cells assessed as accumulation of cells at G1 phase at 7.5 uM incubated for 48 hrs by PI/RNase staining based flow cytometry analysis (reference value: 48.01%); type: functional
[15] = system: MCF7; assay: Induction of cell cycle arrest in human MCF7 cells assessed as accumulation of cells at S phase at 7.5 uM incubated for 48 hrs by PI/RNase staining based flow cytometry analysis (reference value: 44.87%); type: functional
[16] = system: MCF7; assay: Induction of cell cycle arrest in human MCF7 cells assessed as accumulation of cells at G2 phase at 7.5 uM incubated for 48 hrs by PI/Rnase staining based flow cytometry analysis (reference value: […]%); type: functional
[17] = system: MCF7; assay: Induction of apoptosis in human MCF7 cells assessed as live cells at 3.75 uM measured after 48 hrs by Annexin V-FITC staining based flow cytometry analysis (reference value: 99.26%); type: functional
[18] = system: MCF7; assay: Induction of apoptosis in human MCF7 cells assessed as early apoptotic cells at 3.75 uM measured after 48 hrs by Annexin V-FITC staining based flow cytometry analysis (reference value: 0.58%); type: functional
[19] = system: MCF7; assay: Induction of apoptosis in human MCF7 cells assessed as late apoptotic cells at 3.75 uM measured after 48 hrs by Annexin V-FITC staining based flow cytometry analysis (reference value: 0.14%); type: functional
[20] = system: MCF7; assay: Induction of apoptosis in human MCF7 cells assessed as dead cells at 3.75 uM measured after 48 hrs by Annexin V-FITC staining based flow cytometry analysis (reference value: 0.02%); type: functional
[21] = system: MCF7; assay: Induction of apoptosis in human MCF7 cells assessed as live cells at 7.5 uM measured after 48 hrs by Annexin V-FITC staining based flow cytometry analysis (reference value: 99.26%); type: functional
[22] = system: MCF7; assay: Induction of apoptosis in human MCF7 cells assessed as early apoptotic cells at 7.5 uM measured after 48 hrs by Annexin V-FITC staining based flow cytometry analysis (reference value: 0.58%); type: functional
[23] = system: MCF7; assay: Induction of apoptosis in human MCF7 cells assessed as late apoptotic cells at 7.5 uM measured after 48 hrs by Annexin V-FITC staining based flow cytometry analysis (reference value: 0.14%); type: functional
[24] = system: MCF7; assay: Induction of apoptosis in human MCF7 cells assessed as dead cells at 7.5 uM measured after 48 hrs by Annexin V-FITC staining based flow cytometry analysis (reference value: 0.02%); type: functional
[25] = system: MCF7; assay: Induction of apoptosis in human MCF7 cells assessed as live cells at 15 uM measured after 48 hrs by Annexin V-FITC staining based flow cytometry analysis (reference value: 99.26%); type: functional
[26] = system: MCF7; assay: Induction of apoptosis in human MCF7 cells assessed as early apoptotic cells at 15 uM measured after 48 hrs by Annexin V-FITC staining based flow cytometry analysis (reference value: 0.58%); type: functional
[27] = system: MCF7; assay: Induction of apoptosis in human MCF7 cells assessed as late apoptotic cells at 15 uM measured after 48 hrs by Annexin V-FITC staining based flow cytometry analysis (reference value: 0.14%); type: functional
[28] = system: MCF7; assay: Induction of apoptosis in human MCF7 cells assessed as dead cells at 15 uM measured after 48 hrs by Annexin V-FITC staining based flow cytometry analysis (reference value: 0.02%); type: functional
[29] = Metabolic stability in human liver microsomes assessed as compound remaining at […] measured after 30 mins in presence of NADPH by LC-MS/MS analysis; type: ADME, Microsome; settings: read-out: Stability
[30] = Metabolic stability in rat liver microsomes assessed as compound remaining at […] measured after 30 mins in presence of NADPH by LC-MS/MS analysis; type: ADME, Microsome; settings: read-out: Stability
[31] = AUC (0 to 24 hrs) in male Sprague-Dawley rat at 10 mg/kg, po administered as single dose by LC-MS/MS analysis; type: ADME, organism-based; settings: in vivo
[32] = AUC (0 to infinity) in male Sprague-Dawley rat at 10 mg/kg, po administered as single dose by LC-MS/MS analysis; type: ADME, organism-based; settings: in vivo
[33] = Half life in male Sprague-Dawley rat at 10 mg/kg, po administered as single dose by LC-MS/MS analysis; type: ADME, organism-based; settings: in vivo
[34] = Tmax in male Sprague-Dawley rat at 10 mg/kg, po administered as single dose by LC-MS/MS analysis; type: ADME, organism-based; settings: in vivo
[35] = Cmax in male Sprague-Dawley rat at 10 mg/kg, po administered as single dose by LC-MS/MS analysis; type: ADME, organism-based; settings: in vivo
[36] = Clearance in male Sprague-Dawley rat at 10 mg/kg, po administered as single dose by LC-MS/MS analysis; type: ADME, organism-based; settings: in vivo
[37] = Oral bioavailability in male Sprague-Dawley rat at 10 mg/kg administered as single dose by LC-MS/MS analysis; type: ADME, organism-based; settings: in vivo
[38] = AUC (0 to 24 hrs) in male Sprague-Dawley rat at 2 mg/kg, iv administered via tail vein by LC-MS/MS analysis; type: ADME, organism-based; settings: in vivo
[39] = AUC (0 to infinity) in male Sprague-Dawley rat at 2 mg/kg, iv administered via tail vein by LC-MS/MS analysis; type: ADME, organism-based; settings: in vivo
[40] = Half life in male Sprague-Dawley rat at 2 mg/kg, iv administered via tail vein by LC-MS/MS analysis; type: ADME, organism-based; settings: in vivo
[41] = Cmax in male Sprague-Dawley rat at 2 mg/kg, iv administered via tail vein by LC-MS/MS analysis; type: ADME, organism-based; settings: in vivo
[42] = Clearance in male Sprague-Dawley rat at 2 mg/kg, iv administered via tail vein by LC-MS/MS analysis; type: ADME, organism-based; settings: in vivo
[43] = Volume of distribution in male Sprague-Dawley rat at 2 mg/kg, iv administered via tail vein by LC-MS/MS analysis; type: ADME, organism-based; settings: in vivo
[44] = Bioavailability in male Sprague-Dawley rat at 2 mg/kg, iv administered via tail vein by LC-MS/MS analysis; type: ADME, organism-based; settings: in vivo
[45] = system: MCF7; assay: Antitumor activity against orthotopic human MCF7 cells xenografted in CB17SCID mouse assessed as inhibition of tumor growth at 10 to 20 mg/kg, po qd administered once daily for 21 days starting from 3 days post tumor inoculation and measured every day by calipers method; type: functional, organism-based; settings: dose 10-20 mg/kg, time 21.0 day

T1 sequence (O14744 whole entry): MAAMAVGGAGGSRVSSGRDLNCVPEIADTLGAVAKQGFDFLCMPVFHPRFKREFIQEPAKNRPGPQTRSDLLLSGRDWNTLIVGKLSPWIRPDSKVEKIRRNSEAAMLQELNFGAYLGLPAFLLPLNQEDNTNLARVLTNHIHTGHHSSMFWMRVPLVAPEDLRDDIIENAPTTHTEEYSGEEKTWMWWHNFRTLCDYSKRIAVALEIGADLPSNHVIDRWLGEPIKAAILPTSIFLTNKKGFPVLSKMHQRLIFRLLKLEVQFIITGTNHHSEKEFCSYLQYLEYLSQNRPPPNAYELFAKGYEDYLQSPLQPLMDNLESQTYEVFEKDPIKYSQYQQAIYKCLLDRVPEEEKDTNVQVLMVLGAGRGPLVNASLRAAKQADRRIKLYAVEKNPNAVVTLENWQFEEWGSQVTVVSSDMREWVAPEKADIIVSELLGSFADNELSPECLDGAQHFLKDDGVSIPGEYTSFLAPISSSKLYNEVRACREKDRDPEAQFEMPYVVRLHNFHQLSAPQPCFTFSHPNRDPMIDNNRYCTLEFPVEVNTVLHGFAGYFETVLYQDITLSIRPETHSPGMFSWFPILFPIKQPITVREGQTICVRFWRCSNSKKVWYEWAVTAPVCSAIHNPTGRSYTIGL
Sequence of Protein arginine N-methyltransferase 1 (Q99873 whole entry, the tested form may be a part): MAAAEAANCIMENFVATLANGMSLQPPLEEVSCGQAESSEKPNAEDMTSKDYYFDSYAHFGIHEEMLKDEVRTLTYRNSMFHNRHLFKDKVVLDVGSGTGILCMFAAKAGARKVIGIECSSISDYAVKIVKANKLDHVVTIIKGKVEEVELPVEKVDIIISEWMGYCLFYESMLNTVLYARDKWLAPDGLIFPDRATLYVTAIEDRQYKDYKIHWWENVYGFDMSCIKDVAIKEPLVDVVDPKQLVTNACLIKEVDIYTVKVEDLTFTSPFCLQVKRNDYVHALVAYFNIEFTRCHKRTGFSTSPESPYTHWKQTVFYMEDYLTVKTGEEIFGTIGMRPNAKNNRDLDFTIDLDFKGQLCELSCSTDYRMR
Sequence of Receptor tyrosine-protein kinase erbB-4 (Q15303 whole entry, the tested form may be a part): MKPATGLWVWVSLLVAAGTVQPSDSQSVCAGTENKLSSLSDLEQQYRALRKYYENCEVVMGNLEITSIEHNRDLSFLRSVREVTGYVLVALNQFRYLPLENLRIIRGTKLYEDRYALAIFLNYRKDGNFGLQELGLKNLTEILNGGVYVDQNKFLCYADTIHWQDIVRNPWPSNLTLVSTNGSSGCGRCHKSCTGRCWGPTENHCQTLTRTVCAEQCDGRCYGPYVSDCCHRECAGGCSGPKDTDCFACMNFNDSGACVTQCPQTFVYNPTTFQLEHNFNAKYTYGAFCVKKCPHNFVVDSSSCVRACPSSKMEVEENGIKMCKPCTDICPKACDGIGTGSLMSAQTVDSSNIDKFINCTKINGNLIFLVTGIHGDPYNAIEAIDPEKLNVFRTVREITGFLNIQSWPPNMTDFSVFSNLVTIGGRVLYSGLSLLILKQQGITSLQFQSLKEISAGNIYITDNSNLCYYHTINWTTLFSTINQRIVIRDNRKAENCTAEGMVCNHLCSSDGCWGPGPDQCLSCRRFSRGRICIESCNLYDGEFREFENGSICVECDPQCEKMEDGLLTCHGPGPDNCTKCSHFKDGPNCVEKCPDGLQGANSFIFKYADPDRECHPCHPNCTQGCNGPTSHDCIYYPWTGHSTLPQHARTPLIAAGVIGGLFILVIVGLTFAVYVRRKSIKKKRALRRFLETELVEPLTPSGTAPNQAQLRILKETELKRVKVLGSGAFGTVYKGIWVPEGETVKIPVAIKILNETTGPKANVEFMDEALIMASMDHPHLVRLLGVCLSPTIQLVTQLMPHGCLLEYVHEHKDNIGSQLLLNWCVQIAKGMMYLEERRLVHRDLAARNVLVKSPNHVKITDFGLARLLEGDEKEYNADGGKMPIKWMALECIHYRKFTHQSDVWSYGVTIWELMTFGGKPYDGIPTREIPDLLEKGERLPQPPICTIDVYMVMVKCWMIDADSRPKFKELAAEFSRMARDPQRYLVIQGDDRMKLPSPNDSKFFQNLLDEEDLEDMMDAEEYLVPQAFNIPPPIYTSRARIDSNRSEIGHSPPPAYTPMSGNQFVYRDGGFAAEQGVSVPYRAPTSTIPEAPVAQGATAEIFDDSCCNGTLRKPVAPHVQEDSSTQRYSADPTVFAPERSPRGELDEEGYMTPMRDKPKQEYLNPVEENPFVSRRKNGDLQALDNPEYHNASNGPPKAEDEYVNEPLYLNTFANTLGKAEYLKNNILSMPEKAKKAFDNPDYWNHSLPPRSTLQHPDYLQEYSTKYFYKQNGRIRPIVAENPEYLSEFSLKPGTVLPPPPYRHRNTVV

Question: For `COc1cc(C2NCCc3c2[nH]c2ccccc32)ccc1OCc1cc(C(F)(F)F)cc(C(F)(F)F)c1` (stereo not given), which IC50 [1] is on record?
Answer: The IC50 was 15.5 µM.

Question: And the IC50 [2]?
Answer: The IC50 was greater than 100 µM.

Question: And the IC50 [3]?
Answer: The IC50 was 86.5 µM.

Question: And the IC50 [4]?
Answer: The IC50 was 9.76 µM.

Question: And the IC50 [5]?
Answer: Its IC50 is 5.74 µM.

Question: What about the IC50 [6] of the same compound?
Answer: Its IC50 is 7.99 µM.

Question: And the IC50 [7]?
Answer: The IC50 was 6.55 µM.

Question: And the IC50 [8]?
Answer: Its IC50 is 25.4 µM.

Question: What about the inhibition [9] of the same compound?
Answer: The inhibition was “Dose-Dependent Effect”.

Question: What about the Vd [10] of the same compound?
Answer: Its Vd is 38.5 L/kg.

Question: And the Activity [11]?
Answer: Its Activity is 54.85%.

Question: And the Activity [12]?
Answer: Its Activity is 40.55%.

Question: And the Activity [13]?
Answer: The Activity was 4.25%.

Question: And the Activity [14]?
Answer: Its Activity is 62.98%.

Question: And the Activity [15]?
Answer: The Activity was 36.77%.

Question: What about the Activity [16] of the same compound?
Answer: The Activity was 0.26%.

Question: What about the Activity [17] of the same compound?
Answer: The Activity was 98.07%.

Question: And the Activity [18]?
Answer: The Activity was 1.51%.

Question: What about the Activity [19] of the same compound?
Answer: Its Activity is 0.4%.

Question: And the Activity [20]?
Answer: The Activity was 0.02%.

Question: And the Activity [21]?
Answer: The Activity was 97.31%.

Question: And the Activity [22]?
Answer: Its Activity is 2.32%.

Question: What about the Activity [23] of the same compound?
Answer: The Activity was 0.37%.

Question: What about the Activity [24] of the same compound?
Answer: The Activity was 0%.

Question: And the Activity [25]?
Answer: The Activity was 96.45%.

Question: And the Activity [26]?
Answer: The Activity was 3.07%.

Question: And the Activity [27]?
Answer: The Activity was 0.48%.

Question: What about the Activity [28] of the same compound?
Answer: Its Activity is 0.01%.

Question: And the remaining at 0.5 h [29]?
Answer: The remaining at 0.5 h was 85.9%.

Question: And the remaining at 0.5 h [30]?
Answer: Its remaining at 0.5 h is 80.3%.

Question: And the AUC(0-t) [31]?
Answer: The AUC(0-t) was 1960 ng·h/mL.

Question: What about the AUC(0-inf) [32] of the same compound?
Answer: Its AUC(0-inf) is 2110 ng·h/mL.

Question: And the half-life [33]?
Answer: Its half-life is 5.7 h.

Question: What about the Tmax [34] of the same compound?
Answer: The Tmax was 2 h.

Question: And the Cmax [35]?
Answer: The Cmax was 167 ng/mL.

Question: And the CL/F [36]?
Answer: Its CL/F is 78.3 mL/min/kg.

Question: And the bioavailability [37]?
Answer: Its bioavailability is 30.6%.

Question: What about the AUC(0-t) [38] of the same compound?
Answer: Its AUC(0-t) is 1280 ng·h/mL.

Question: What about the AUC(0-inf) [39] of the same compound?
Answer: Its AUC(0-inf) is 1330 ng·h/mL.

Question: And the half-life [40]?
Answer: The half-life was 4.9 h.

Question: And the Cmax [41]?
Answer: The Cmax was 187 ng/mL.

Question: What about the clearance [42] of the same compound?
Answer: The clearance was 25 mL/min/kg.

Question: And the Vd [43]?
Answer: Its Vd is 10.8 L/kg.

Question: And the F [44]?
Answer: The F was 100%.

Question: What about the Activity [45] of the same compound?
Answer: The Activity was “Active”.
